# Results: ChEMBL document CHEMBL5321260, “Pseudo-Enantiomeric Paraphaeolactones and Their Biosynthetic Derivatives from Paraphaeosphaeria sp. KT4192: A Proposition of a Favorskii Rearrangement for Their Biosynthesis” (J Nat Prod, 2023)
# Activity calls are given as the source filed them. The calls are words filed in the database; no cut-off is given here.
# Columns and labels:
# Bipolaris oryzae = assay: Antifungal activity against Bipolaris oryzae incubated for 5 days; assay type: functional, organism-based; details: time 5.0 day
# COLO 201 = assay: Cytotoxicity against human COLO201 cells assessed as reduction in cell proliferation measured after 24 hrs by WST-1 assay; assay type: functional, cell-based; details: COLO 201, 24 h
Structure (SMILES),Activity (Bipolaris oryzae),IC50 (COLO 201) [µM]
CC(=O)[C@@H](O)c1c(C)ccc2c1O[C@]1(O2)[C@@]2(O)C=C[C@@H](C)[C@@H]3[C@H]2OC(=O)[C@@]31O,inactive,260
CC(=O)C(O)c1cc(O)ccc1C (stereo not drawn),inactive,340
C[C@@H]1C=C[C@@]2(O)C[C@]3(O)C(=O)O[C@H]2[C@H]13,inactive,300
CC(=O)[C@H](O)[C@H]1[C@H](C)C=CC(=O)[C@@H]1O,inactive,> 500
C[C@@H]1C=C[C@]2(O)C[C@@]3(O)C(=O)O[C@@H]2[C@@H]13,inactive,> 500
Cc1ccc(O)cc1C(=O)[C@H](C)O,inactive,290
COC(=O)[C@]12[C@@H](C(C)=O)O[C@H](CC(=O)[C@@H]1O)[C@H]2C,inactive,200
C=C1OC(=O)[C@]23[C@@H]1O[C@H](CC(=O)[C@@H]2O)[C@H]3C,inactive,390
CC(=O)[C@@H](O)c1c(C)ccc2c1O[C@@]1(O2)[C@@]2(O)C=C[C@@H](C)[C@@H]3[C@H]2OC(=O)[C@@]31O,inactive,200
